Read-outs that look alike come from different tables or passages of the source.

The term IC50 denotes the concentration at which inhibition is half-maximal.

The assay addresses T1, CIB1 and αIIb interaction (CIB1-GST : F-αIIb peptide) (Homo sapiens, UniProt Q99828).
T1 construct: made in house; host or cells: BL-21 plus RIL cells (E. coli)
T1 sequence (Q99828 1-191): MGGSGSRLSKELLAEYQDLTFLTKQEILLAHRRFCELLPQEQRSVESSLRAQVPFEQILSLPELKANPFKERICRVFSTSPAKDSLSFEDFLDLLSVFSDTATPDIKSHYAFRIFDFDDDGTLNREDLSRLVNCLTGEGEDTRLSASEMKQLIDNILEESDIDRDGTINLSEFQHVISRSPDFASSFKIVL
Briefly: FP assay, 1536-well qHTS format (primary and confirmatory screen). It is filed as binding. Conditions: for Efficacy (%): negative = inhibition; for Curve Class: negative sign = inhibitory curve; for IC50: read-out: IC50. (In general: qHTS replaces the single test concentration by a dilution series.)

Setting [1] is: qHTS primary screen hits, Table S2.
[2] abbreviates: qHTS primary screen hits, Table S2, several classes where COUNT > 1.
Setting [3] is: qHTS primary screen of LOPAC/NPACT libraries.

Regarding `COc1ccc(Br)cc1S(=O)(=O)NC(=O)/C=C/c1ccccc1Cc1ccc2ccccc2c1` [NCGC00260960-01], under setting [1], the “Efficacy (%)” value is on record as -50%, the “Curve Class” value is on record as -2.2 and the IC50 came to 22.4 µM.

On to `C[C@H](O)C(=O)C1=Nc2c(nc(N)[nH]c2=O)NC1` [NCGC00094391-03], for which, under setting [1], the “Efficacy (%)” value is recorded as -40%, the “Curve Class” value was -2.2 and the IC50 worked out at 35.5 µM.

`Cc1cc(Cl)ccc1-n1c(CCC(=O)O)ccc1-c1cccs1` [NCGC00100435-03]: under setting [1], the “Efficacy (%)” value is -33%, the “Curve Class” value is -2.2 and the IC50 worked out at 50.1 µM.

Turning to `Cl.NS(=O)(=O)c1cccc(Cc2c(-c3ccc(F)c(F)c3)nn(-c3nc(C(=O)O)cs3)c2O)c1` [NCGC00356269-01], under setting [1], the “Efficacy (%)” value is -17% and the IC50 is 50.1 µM. In addition, the “Curve Class” value under setting [2] was -2.4.

Take `O=C(O)C(F)(F)F.O=S(=O)(Nc1ccc(O)c2ncccc12)c1ccccc1F` [NCGC00184887-02]: under setting [1], the “Efficacy (%)” value is -48% and the IC50 worked out at 79.4 µM. Besides, the “Curve Class” value under setting [2] is listed as -3.

`COc1ccccc1N1CCNCC1.Cl` [NCGC00015906-04]: under setting [1], the “Efficacy (%)” value is on record as -80%, the “Curve Class” value is on record as -3 and the IC50 is 79.4 µM.

For the compound `Oc1ccc2c3c1O[C@H]1c4[nH]c5c(N=C=S)cccc5c4C[C@@]4(O)[C@@H](C2)N(CC2CC2)CC[C@]314` [NCGC00485321-01], under setting [3], the “Efficacy (%)” value is on record as -30%, the “Curve Class” value is listed as -2.4 and the half-inhibitory concentration (IC50) is 100 µM.

On to `CCOC(=O)C1=C(C)NC(C)=C(C(=O)OC)C1c1cccc([N+](=O)[O-])c1` (stereo not drawn) [NCGC00015713-10], for which, under setting [3], the “Efficacy (%)” value is given as -23%, the “Curve Class” value was -2.4 and the IC50 turned out to be 63.1 µM.

Turning to `CCC(C)(C)n1nnnc1C(c1cc2ccc(OC)cc2[nH]c1=O)N1CCc2ccccc2C1.O=C(O)C(F)(F)F` (stereo not drawn) [NCGC00350929-01], under setting [1], the “Efficacy (%)” value is -29% and the IC50 came out at 56.2 µM. Moreover, the “Curve Class” value under setting [2] was -2.4.

In the case of `Cc1ccnc(NC(=S)N2CCc3ccccc3C2)c1.O=C(O)C(F)(F)F` [NCGC00241083-01], under setting [1], the “Efficacy (%)” value is recorded as -23% and the IC50 stood at 79.4 µM. The “Curve Class” value under setting [2] is given as -2.4.

On to `Cc1ccc(O)c(N=Nc2ccccc2)n1` [NCGC00185991-01], for which, under setting [3], the “Efficacy (%)” value is listed as -14%, the “Curve Class” value was -1.2 and the IC50 worked out at 1.8 µM.

Take `CS(=O)(=O)O.CSc1ccc2c(c1)C(N1CCN(C)CC1)Cc1ccccc1S2` (stereo not drawn) [NCGC00024665-06]: under setting [3], the “Efficacy (%)” value is recorded as -28%, the “Curve Class” value was -2.4 and the IC50 was 56.2 µM.

As to `Cc1ccc(Cl)c(Nc2ccccc2C(=O)O)c1Cl` [NCGC00023217-06], under setting [1], the “Efficacy (%)” value was -57%, the “Curve Class” value was -2.2 and the IC50 turned out to be 44.7 µM.

Consider `CC(=O)NC(c1cccs1)c1cc(Br)c2cccnc2c1O` (stereo not drawn) [NCGC00188370-02], for which, where the note is “qHTS FP screen hits, Table S2”, the “Efficacy (%)” value was -40% and the IC50 was determined as 45.5 µM.

Regarding `Cc1cc(O)c2c(c1)C(=O)c1cc(O)cc(O)c1C2=O` [NCGC00015420-08], under setting [1], the “Efficacy (%)” value is -31%, the “Curve Class” value is reported as -1.2 and the IC50 stood at 10 µM.

As for `CCCCCCCCCCCCCCC[C@H](O)[C@@H](N)CO` [NCGC00015362-05], under setting [1], the “Efficacy (%)” value is recorded as -110% and the IC50 came out at 100 µM. Also, under setting [2], the “Curve Class” value is -2.3.

Take `C=C(C)C(=O)OC1CC2(C)OC(=CC2=O)C(=C)CC2OC(=O)C(=C)C12` (stereo not drawn) [NCGC00381113-01]: under setting [3], the “Efficacy (%)” value was -22%, the “Curve Class” value is recorded as -1.4 and the IC50 was 8.9 µM.

Take `NC(=O)N/N=C/c1ccc([N+](=O)[O-])o1` [NCGC00090686-07]: under setting [1], the “Efficacy (%)” value is listed as -26%, the “Curve Class” value is -2.4 and the IC50 turned out to be 112 µM.

`COc1cccc(CNc2ccc(S(=O)(=O)Nc3ccc(C4CCNCC4)cc3)cc2)c1O.O=C(O)C(F)(F)F` [NCGC00343917-01]: under setting [1], the “Efficacy (%)” value is reported as -46%, the “Curve Class” value is on record as -2.4 and the IC50 was 50.1 µM.

With `NC1(C(=O)O)CCc2cc(C(=O)O)ccc21` (stereo not drawn) [NCGC00015024-06], under setting [3], the “Efficacy (%)” value is -25%, the “Curve Class” value is -2.2 and the IC50 came to 56.2 µM.

As to `CC1(CO)CCCC2(C)C1C(OC(=O)c1ccccc1)C=C1C(=O)OCC12O` (stereo not drawn) [NCGC00380390-01], under setting [3], the “Efficacy (%)” value is -28%, the “Curve Class” value is listed as -2.4 and the IC50 is 44.7 µM.

Regarding `O=C(Nc1ccc(Oc2ccc(Cl)cc2)c(Cl)c1)c1cc(I)cc(I)c1O` [NCGC00160556-02], under setting [1], the “Efficacy (%)” value is recorded as -27%, the “Curve Class” value is on record as -2.4 and the IC50 turned out to be 89.1 µM.

`Cl.Nc1ccc2cc3ccc(N)cc3nc2c1.Nc1ccc2cc3ccc(N)cc3nc2c1.O=S(=O)(O)O` [NCGC00166245-04]: under setting [1], the “Efficacy (%)” value is -130% and the IC50 amounted to 2.2 µM. The “Curve Class” value under setting [2] is listed as -1.1.

In the case of `Nc1ccn(C2CO[C@H](CO)O2)c(=O)n1` (stereo partly drawn) [NCGC00183848-01], under setting [1], the “Efficacy (%)” value was -100% and the IC50 worked out at 39.8 µM. Under setting [2], the “Curve Class” value is -3.

Take `CC(C)(Sc1ccc(CCN(CCCCC2CCCCC2)C(=O)NC2CCCCC2)cc1)C(=O)O` [NCGC00015480-08]: under setting [3], the “Efficacy (%)” value is given as -28%, the “Curve Class” value is -1.4 and the IC50 stood at 12.6 µM.

As for `CCCCCN(CCCCC)C(=O)C(CCC(=O)O)NC(=O)c1ccc(Cl)c(Cl)c1` (stereo not drawn) [NCGC00162232-03], under setting [3], the “Efficacy (%)” value is given as -19%, the “Curve Class” value is -2.2 and the IC50 was determined as 44.7 µM.

In the case of `O.O.O=c1c(O)c(-c2ccc(O)c(O)c2)oc2cc(O)cc(O)c12` [NCGC00015870-27], the “Efficacy (%)” value under setting [1] is given as -30%.

`CN(C)c1cccc(-c2cnc(N3CCC(c4ncc[nH]4)CC3)s2)c1.O=C(O)C(F)(F)F` [NCGC00187899-01]: under setting [1], the “Efficacy (%)” value is listed as -34%, the “Curve Class” value is -2.4 and the IC50 turned out to be 79.4 µM.

On to `COc1cccc(S(=O)(=O)Nc2cnccc2C(=O)Nc2nc(-c3ccccc3)cs2)c1.O=C(O)C(F)(F)F` [NCGC00344906-01], for which, under setting [1], the “Efficacy (%)” value was -33% and the IC50 amounted to 50.1 µM. Under setting [2], the “Curve Class” value was -2.2.

`Cc1cc(Cn2cnc3c2C[C@@H](C(=O)O)N(C(=O)C(c2ccccc2)c2ccccc2)C3)ccc1N` [NCGC00162092-02]: under setting [3], the “Efficacy (%)” value was -10%, the “Curve Class” value is reported as -1.4 and the IC50 was 10 µM.

With `O=C(O)C(F)(F)F.O=C1CC(c2ccccc2F)c2sc(N3CCOCC3)nc2N1` (stereo not drawn) [NCGC00488254-02], under setting [1], the “Efficacy (%)” value was -42% and the IC50 came to 56.2 µM. For the same compound, the “Curve Class” value under setting [2] is -2.4.

For `C=C1C(=O)O[C@@H]2C/C(C)=C\C(=O)/C=C(\C)[C@@H](OC(=O)/C(C)=C\C)[C@H](O)[C@@H]12` [NCGC00380290-01], under setting [3], the “Efficacy (%)” value was -23%, the “Curve Class” value is -1.4 and the IC50 came out at 4.5 µM.

Take `O=C(O)C(F)(F)F.O=C1CC(c2ccc(F)cc2Cl)c2sc(N3CCOCC3)nc2N1` (stereo not drawn) [NCGC00488260-02]: under setting [1], the “Efficacy (%)” value is listed as -41% and the IC50 was 50.1 µM. The “Curve Class” value under setting [2] is -2.4.

`C[N+](C)(C)CC(=O)O.[Cl-]` [NCGC00015150-04]: under setting [1], the “Efficacy (%)” value is reported as -24% and the IC50 was 56.2 µM. The “Curve Class” value under setting [2] is recorded as -2.4.

For `CC(C)(C)OC(=O)c1csc(-n2nc(-c3ccc(F)c(F)c3)c(-c3ccccc3)c2O)n1.O=C(O)C(F)(F)F` [NCGC00356364-01], under setting [1], the “Efficacy (%)” value is reported as -24%, the “Curve Class” value is -2.4 and the IC50 stood at 56.2 µM.

On to `C[C@]12CC[C@@H]3c4ccc(OC(=O)N(CCCl)CCCl)cc4CC[C@H]3[C@@H]1CC[C@@H]2O` [NCGC00164581-02], for which, under setting [1], the “Efficacy (%)” value is recorded as -41% and the IC50 worked out at 50.1 µM. In addition, the “Curve Class” value under setting [2] was -2.2.

In the case of `CC(C)=CCC1C(=O)N(c2ccccc2)N(c2ccccc2)C1=O` [NCGC00164582-02], under setting [1], the “Efficacy (%)” value is -28% and the IC50 is 50.1 µM. Further, the “Curve Class” value under setting [2] is given as -2.4.

For `CC(C)NCC(O)c1cc(O)cc(O)c1.CC(C)NCC(O)c1cc(O)cc(O)c1.O=S(=O)(O)O` (stereo not drawn) [NCGC00015655-09], under setting [1], the “Efficacy (%)” value is reported as -51% and the concentration for half-maximal inhibition (IC50) worked out at 56.2 µM. The “Curve Class” value under setting [2] was -2.4.

As to `COc1cc([C@H]2Oc3cc([C@H]4Oc5cc(O)cc(O)c5C(=O)[C@@H]4O)ccc3O[C@@H]2CO)ccc1O` [NCGC00091057-06], under setting [1], the “Efficacy (%)” value is reported as -74%, the “Curve Class” value was -2.2 and the IC50 is 28.5 µM.

Take `N.N.N.N.N.N.N.N.N.N.N.N.N.N.O.O.[Ru].[Ru].[Ru]` [NCGC00162333-02]: under setting [3], the “Efficacy (%)” value is -26%, the “Curve Class” value is recorded as -2.2 and the IC50 is 56.2 µM.

For the compound `CC(C)=CCc1ccc(Oc2c(O)cc(C)cc2CO)c(C(=O)O)c1O` [NCGC00169025-02], under setting [3], the “Efficacy (%)” value was -26%, the “Curve Class” value was -2.4 and the IC50 is 44.7 µM.

Values taken from article PMC11249646, “Small-Molecule Disruptors of the Interaction between Calcium- and Integrin-Binding Protein 1 and Integrin αIIbβ3 as Novel Antiplatelet Agents” (ACS Pharmacology & Translational Science, 2024).
